Measured values published in ChEMBL document CHEMBL1154957, “Preparation and in vitro screening of symmetrical bispyridinium cholinesterase inhibitors bearing different connecting linkage-initial study for Myasthenia gravis implications” (Bioorg Med Chem Lett, 2010).
Active and inactive are the calls of the source. The rule behind the calls is not given here.

Key:
[1] = molecular target: T1, Acetylcholinesterase (Homo sapiens, UniProt P22303); test: Inhibition of human erythrocyte AChE after 5 mins by Ellman's method
[2] = molecular target: Cholinesterase (Homo sapiens, UniProt P06276); test: Inhibition of human plasma BChE after 5 mins by Ellman's method; type: cell-free
[3] = molecular target: T1, Acetylcholinesterase; test: Inhibition of human erythrocyte AChE at 0.0000001 mM to 1 mM after 5 mins by Ellman's method
[4] = molecular target: T1, Acetylcholinesterase; test: Inhibition of human erythrocyte AChE after 5 mins by noncompetitive Lineweaver-Burke plot analysis for enzyme-inhibitor complex
[5] = molecular target: T1, Acetylcholinesterase; test: Inhibition of human erythrocyte AChE after 5 mins by noncompetitive Lineweaver-Burke plot analysis

Sequence of Cholinesterase (P06276 whole entry): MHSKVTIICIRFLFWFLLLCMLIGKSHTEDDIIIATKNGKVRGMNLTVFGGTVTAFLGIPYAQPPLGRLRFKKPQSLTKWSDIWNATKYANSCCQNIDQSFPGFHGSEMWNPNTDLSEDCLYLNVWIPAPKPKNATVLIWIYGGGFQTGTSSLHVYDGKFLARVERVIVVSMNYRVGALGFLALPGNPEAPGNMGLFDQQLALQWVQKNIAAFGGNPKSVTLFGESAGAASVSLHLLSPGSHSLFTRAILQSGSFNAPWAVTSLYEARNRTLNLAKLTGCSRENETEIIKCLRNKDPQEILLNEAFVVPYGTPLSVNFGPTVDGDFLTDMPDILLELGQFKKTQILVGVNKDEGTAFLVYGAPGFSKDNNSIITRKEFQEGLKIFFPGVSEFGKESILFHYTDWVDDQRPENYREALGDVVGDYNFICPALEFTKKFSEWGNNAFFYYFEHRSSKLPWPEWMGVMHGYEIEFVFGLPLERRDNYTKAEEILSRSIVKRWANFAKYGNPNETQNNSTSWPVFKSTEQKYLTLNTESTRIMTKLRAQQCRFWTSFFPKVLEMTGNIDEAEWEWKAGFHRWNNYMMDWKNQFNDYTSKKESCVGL
T1 sequence (P22303 whole entry): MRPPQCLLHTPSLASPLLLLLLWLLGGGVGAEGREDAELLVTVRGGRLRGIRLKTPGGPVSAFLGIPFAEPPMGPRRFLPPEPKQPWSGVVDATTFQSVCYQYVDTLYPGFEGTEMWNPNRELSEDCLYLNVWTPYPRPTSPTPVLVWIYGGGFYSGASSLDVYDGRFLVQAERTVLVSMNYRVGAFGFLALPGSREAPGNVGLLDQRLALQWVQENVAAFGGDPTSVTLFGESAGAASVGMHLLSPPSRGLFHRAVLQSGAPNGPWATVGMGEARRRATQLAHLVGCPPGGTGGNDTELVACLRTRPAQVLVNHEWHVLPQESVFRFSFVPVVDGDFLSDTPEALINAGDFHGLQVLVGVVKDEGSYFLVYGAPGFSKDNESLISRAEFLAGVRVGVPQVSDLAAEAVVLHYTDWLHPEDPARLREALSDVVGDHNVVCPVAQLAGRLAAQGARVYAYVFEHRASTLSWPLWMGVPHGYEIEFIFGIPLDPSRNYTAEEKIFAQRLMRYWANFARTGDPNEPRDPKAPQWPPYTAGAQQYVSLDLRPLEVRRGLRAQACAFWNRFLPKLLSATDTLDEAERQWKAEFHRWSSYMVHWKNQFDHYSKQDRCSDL

SMILES	IC50 [1]	IC50 [2]	inhibition [3]	Ki [4]	Ki [5]
c1cc[n+](CCCCC[n+]2ccccc2)cc1	1270 µM	120 µM	–	–	–
c1cc[n+](Cc2ccccc2C[n+]2ccccc2)cc1	636 µM	345 µM	–	–	–
c1cc[n+](CCCCCCCCC[n+]2ccccc2)cc1	2 µM	6 µM	–	–	–
c1cc[n+](CCCC[n+]2ccccc2)cc1	505 µM	9800 µM	–	–	–
c1cc[n+](CCC[n+]2ccccc2)cc1	–	–	inactive	–	–
c1cc[n+](CCCCCCCC[n+]2ccccc2)cc1	31 µM	29 µM	–	–	–
c1cc[n+](CCCCCCC[n+]2ccccc2)cc1	241 µM	78 µM	–	–	–
c1cc[n+](Cc2ccc3ccc(C[n+]4ccccc4)cc3c2)cc1	0.2 µM	0.8 µM	–	0.14 µM	0.14 µM
c1cc[n+](CCCCCC[n+]2ccccc2)cc1	63 µM	130 µM	–	–	–
c1cc[n+](CCOCC[n+]2ccccc2)cc1	2010 µM	2360 µM	–	–	–
C(=C/C[n+]1ccccc1)/C[n+]1ccccc1	1990 µM	1270 µM	–	–	–
c1cc[n+](C[n+]2ccccc2)cc1	–	–	inactive	–	–
c1cc[n+](CCCCCCCCCCC[n+]2ccccc2)cc1	0.7 µM	7 µM	–	0.02 µM	0.03 µM
CN(C)C(=O)Oc1cccc([N+](C)(C)C)c1 [NEOSTIGMINE BROMIDE]	–	0.8 µM	–	–	–
c1cc[n+](Cc2cccc(C[n+]3ccccc3)c2)cc1	2360 µM	1380 µM	–	–	–
C(=C\C[n+]1ccccc1)/C[n+]1ccccc1	2290 µM	541 µM	–	–	–
c1cc[n+](CC[n+]2ccccc2)cc1	–	–	inactive	–	–
c1cc[n+](Cc2ccc(C[n+]3ccccc3)cc2)cc1	1540 µM	529 µM	–	–	–
c1cc[n+](CCCCCCCCCCCC[n+]2ccccc2)cc1	–	–	inactive	–	–
c1cc[n+](COC[n+]2ccccc2)cc1	1770 µM	583 µM	–	–	–
